Test results as given in US20230405002A1, “COMBINATIONS OF DIACYLGLYCEROL ACYLTRANSFERASE 2 INHIBITORS AND ACETYL-COA CARBOXYLASE INHIBITOR” (Pfizer Inc., priority 2020, published 2023).

What was measured:
[1] = system: Western diet fed Sprague Dawley rats; assay: Compound A / Compound D study in Western diet fed rats: fed and fasted plasma triglycerides; format: in vivo, rat; settings: for increase in fasted plasma TG / reduction of fasted plasma TG: relative to vehicle administered Western diet fed rats; for increase in plasma TG in the fed state / reduction of plasma TG in the fed state: relative to vehicle-administered Western diet fed rats
Method: (§1) A randomized, vehicle-controlled, 8-parallel arm study was conducted in male Sprague-Dawley rats (Charles River (Boston, MA)) to obtain circulating and hepatic TG levels. Standard laboratory conditions were used to house 96 rats (˜200 g); they were double housed and kept under 12:12-hour reverse light-dark schedule (lights off at 8:00 AM). Rats were randomized into chow or Western diet groups and dose groups upon arrival and were given a 14-day lead-in period on either standard rat chow or Western diet prior to the start of the study. Standard Laboratory Rodent chow diet, 5053, was from LabDiet (PMI, St Louis, Missouri). Western Diet, D12079Bi, was from Research Diets (New Brunswick, NJ).
For these studies, vehicle was prepared to make a 0.5% (wt/volume) of methyl cellulose (MC, Sigma Aldrich, 274429) in deionized water.
Fed plasma analytes: Blood for determining fed plasma TG concentrations was collected 2 hours post dose (2 hours into the dark cycle) via lateral tail vein, transferred to BD Microtainer tubes coated with dipotassium ethylenediaminetetraacetic acid (K2EDTA) (PN365974), and centrifuged at 4° C. The resulting plasma samples were then analyzed on a Siemens Chemistry XPT clinical analyzer (Malven, PA) using Siemens triglycerides_2 assay reagents (ref 10335892).
Fasted plasma analytes: Blood for determining fasted plasma TG was collected after a 4 hour fast, 2 hours post-dose (2 hours into the dark cycle) via lateral tail vein, transferred to BD Microtainer tubes coated with K2EDTA (PN365974), and centrifuged at 4° C. The resulting plasma samples were then analyzed on a Siemens Chemistry XPT clinical analyzer (Malven, PA) using Siemens triglycerides 2 assay reagents (ref 10335892).

[2] = system: SREBP-1; assay: Compound A / Compound D study in Western diet fed rats: nuclear SREBP-1 localization (Western blot); format: in vivo, rat; settings: high dose; relative to vehicle treated Western diet fed rats
Method: as §1
Nuclear and Membrane fractions were prepared by ultracentrifugation using standard methods from a portion of the pulverized liver samples, that were pooled per treatment group. Samples from the nuclear extract and the membrane fractions were analyzed by Western blotting for SREBP1. Western blots for Calnexin was used as a marker for the membrane fraction, actin as a marker for total sample loading, and Histone 2B as a marker for the nuclear fraction. Nuclear SREBP1 levels were quantified using relative units and normalized to Histone 2B to control for sample loss during the nuclear fractionation and gel loading.

[3] = system: ACC1, FASN, SCD1, PCSK9 and SREBP-1c; assay: Compound A / Compound D study in Western diet fed rats: hepatic lipogenic gene expression (qPCR); format: in vivo, rat; settings: relative to Western diet fed vehicle treated rats
Method: as §1
Another portion of the pulverized liver was processed and analyzed for lipogenic gene expression. Rat taqman probes against ACC1, FASN, SCD1, PCSK9 and SREBP-1c were all assessed using Actb as housekeeping gene on qPCR.

[4] = system: CDAHFD fed male Wistar-Han rats; assay: CDAHFD rat study: liver histology (αSMA IHC, Picrosirius red, Iba1 staining); format: in vivo; settings: Compound A 5 mg/kg, Compound D 30 mg/kg twice daily, 6 weeks
Source text: Standard laboratory conditions were used to house 60 rats (˜200 g); they were double housed and kept under 12:12-hour reverse light-dark schedule (lights off at 8:00 AM). Rats were fed choline deficient and high fat diet (CDAHFD) beginning 6-weeks prior to initiation of the study. […] Animals (n=12) remaining on normal chow throughout the study and administered twice-daily vehicle were used as a control group. Blood samples were collected prior to starting compound administration and 3- and 6-week post compound administration for the assessment of circulating markers. Shearwave elastography (Aixplorer Ultimate imager, Supersoinc imagine) measurements were made at Week −3, Week 0 (prior to 1st dose), Week 3 and Week 6 to assess inflammation and fibrosis progression over time. Histology was assessed following 6-weeks of drug administration which corresponded to 12 weeks on the CDAHFD. Results are provided as an average of animals per each dosing group.
Following the 12-weeks on CDAHFD, the animals were sacrificed by CO2 asphyxiation. The right lateral, medial and left lateral lobes of the liver were harvested. Sections were taken from the left lateral, right medial and right lateral lobes and fixed in formalin and processed to paraffin blocks per animal. One section of left lateral lobe per animal was cryopreserved in optimal cutting temperature (OCT) compound. The remainder of the liver from each animal was frozen and rapidly pulverized on an aluminum block cooled in liquid N2, ensuring the tissue remained frozen throughout the pulverization. The pulverized tissue was transferred and stored at −80° C. until analysis. A portion of the pulverized liver sample from each animal was processed and analyzed for gene expression markers of fibrogenesis. Rat taqman probes against αSMA and COL1A1 were all assessed using Actb as housekeeping gene on qPCR.
The following endpoints were evaluated by qualitative histologic evaluation by a board certified veterinary pathologist and quantitative histomorphometry: hepatic stellate cell activation and differentiation into myofibroblasts by αSMA immunohistochemistry (IHC); Collagen as a correlate of fibrosis by Picrosirius Red stain. Images were analyzed using Visiopharm software. Visiopharm applications with threshold parameters were applied uniformly to identify tissue sections and to quantify the targets on each IHC (DAB (3,3′-diaminobenzidine) positive) or histochemically stained slides as percent area: stain area of interest/Total tissue ROI−whitespace)×100%. Non-parametric statistics were used to analyze data from this study. Group values were reported as mean+/− the standard error of the mean.

[5] = high dose (Compound A 10 mg/kg QD)
[6] = low dose (Compound A 1 mg/kg QD)

Row | Compound | increase in fasted plasma TG [1, 5] [fold] | increase in plasma TG in the fed state [1, 5] [fold] | increase in fasted plasma TG [1, 6] [fold] | increase in plasma TG in the fed state [1, 6] [fold] | nuclear SREBP-1 localization [2] | hepatic lipogenic gene expression (ACC1, FASN, SCD1, SREBP1, PCSK9) [3] | reduction of Iba1 staining [4] | reduction of Picosrius red (PSR) staining [4] [%] | reduction of αSMA staining [4] [%] | reduction of plasma TG in the fed state ([1]; high dose (Compound A 10 mg/kg QD, Compound D 30 mg/kg BID)) [%] | reduction of fasted plasma TG ([1]; high dose (Compound D 30 mg/kg BID)) [%] | reduction of plasma TG in the fed state ([1]; low dose (Compound A 1 mg/kg QD, Compound D 5 mg/kg BID)) [%] | reduction of fasted plasma TG ([1]; low dose (Compound D 5 mg/kg BID)) [%]
1 | COc1cc(C(=O)N2CCC3(CC2)CC(=O)c2c(cnn2C(C)C)C3)cc(-c2ccc(C(=O)O)cc2)n1 [Compound A, 4-(4-(1-isopropyl-7-oxo-1,4,6,7-tetrahydrospiro[indazole-5,4′-piperidine]-1′-carbonyl)-6-methoxypyridin-2-yl)benzoic acid] | 1.7 | 1.3 | 2.4 | 1.7 | increased nuclear localization of SREBP-1 | trended to further increase | 15% | 26 | 41 |  |  |  | 
2 | CCOc1cccnc1Oc1cncc(-c2ncc(C(=O)N[C@H]3CCOC3)cn2)c1 [Compound D, (S)-2-(5-((3-ethoxypyridin-2-yl)oxy)pyridin-3-yl)-N-(tetrahydrofuran-3-yl)pyrimidine-5-carboxamide] |  |  |  |  | reduced SREBP-1 nuclear localization | decreased expression of all of the lipogenic genes | did not alter Iba1 staining | 20 | 23 | 63 | 35 | 55 | 20
